The source of these data is patent US20180289692A1, “TLR MODULATORS AND METHODS OF USE” (CELGENE CORPORATION, priority 2015, published 2018).

Oligonucleotides are written 5' to 3', each unit as a sugar letter and its base; * is a phosphorothioate linkage, no mark a phosphodiester; rarer units and linkages stand in square brackets, end groups in braces. Plain capitals give the bases only. d = 2'-deoxy (DNA)

The subject of series [1] is human PBMCs. In words: IL-1β secretion from NOD2 ligand L18-MDP stimulated human PBMCs. In kind it is cell-based. The note with it: L-18 MDP 100 ng/ml, FIG. 19. The method, then:
PBMCs were isolated from 3 donors of buffy coat (Blood Center of NY) using density gradient centrifugation. The PBMCs were resuspended in RPMI-1640 media supplemented with 10% FBS, 2 mM L-glutamine and 100 units/ml Penicillin and 100 μg/ml Streptomycin. The cells were plated in 96-well flat bottom plates at 250,000 cells/well. […] After 1 hr, the cells were stimulated with and without L-18 MDP at 100 ng/ml (Invivogen, San Diego, Calif.) or 1 ng/ml LPS (Sigma, St. Louis, Mo.). The cells were then incubated for 24 hrs at 37° C., 5% CO2. All compounds or ODNs were resuspended in endotoxin-free water. After 24 hrs, the supernatant was collected and analyzed for cytokine production. The supernatants were analyzed in duplicate for cytokine production in a magnetic multi-plex bead format using the MagPix instrument (Millipore, Billerica, Mass.). IL-1β was tested using a bead-based human cytokine/chemokine kit (Millipore, Cat# HCYTOMAG-60K-09). The manufacturer's procedures were followed accordingly. Data analysis was performed using Milliplex Analyst Software (Millipore).

The next series deals with T1, NOD2 (Homo sapiens, UniProt Q9HC29).
T1 construct: host or cells: HEK-Blue NOD2 cells
The note with it: HEK-Blue NOD2 cells; cited from earlier work.

Series [2] has as its system CD19+ B-cells in human PBMCs. Briefly: B-cell activation in human PBMCs, CD86 expression on CD19+ B-cells by FACS. In kind it is cell-based. The note with it: 24 h, FIG. 7. The method, then:
PBMC were incubated on ice in the presence of Fc-Block (BD Pharmingen) for 20 minutes, washed, and incubated with antibodies specific for surface molecules or isotype-matched control mAbs. APC-Cy7 labeled anti-human CD19 mAb and PE-labeled anti-human CD86 mAb were purchased from BioLegend. The stained cells were then subjected to FACS (FACSCanto, BD Biosciences) using the FACSDiva software. FACS analysis was performed using FlowJo software. Single, viable cells in the CD19+ B-cells gates were used for analysis. The flow cytometric results are expressed as the percentage of CD86-expressing cells (FIG. 7A) as the mean fluorescence intensity (MFI) of CD86-expressing cells in each gate (FIG. 7B).

Series [3] deals with human PBMCs. Briefly: Cytokine production by human PBMCs treated with ODNs, MagPix Multi-Plex. Type of series: cell-based. Conditions: for IFN-γ / IL-1β / IL-6 / IL-10 / IL-12p40 / IP10 / TNF-α: human PBMC, 24 hrs. The method, then: PBMC from 3 donors were isolated from Buffy Coat (Blood Center of NY). The cells were washed with PBS and re-suspended in RPMI-1640 Media with 5% Human AB Serum, 1% Pen/Strep and 2 mM L-glutamine. The cells were then plated in 96-well plates at 250,000 cells/well. […] After 24 hrs, the supernatant was harvested and tested for cytokine production using MagPix Multi-Plex Technology. The following cytokines were tested: IL-6, IL-10, IL-12p40, IFN-α, IFN-γ, IP-10, IL-1β and TNF-α.

The subject of series [4] is human pDCs. Briefly: Surface ICOS-L and PD-L1 expression in CCR6+CD123+ human pDCs by FACS. Type of series: cell-based. The note with it: human pDCs, 24 hrs, FIG. 2B. The method, then: To evaluate surface ICOS-L, PD-L1 expression in the CCR6+CD123+ pDC cell subsets, PBMCs were incubated on ice in the presence of Fc-Block (BD Pharmingen) for 20 minutes, washed, and incubated with antibodies specific for surface molecules or isotype-matched control mAbs. APC-labeled anti-human ICOS-L mAb were purchased from BioLegend, PECY-7-labeled anti-human CCR6 mAb, FITC-labeled anti-human PD-L1 mAb and PerCP-Cy5.5 labeled anti-human CD123 mAb were purchased from BD Biosciences. The stained cells were then subjected to FACS (FACSCanto, BD Biosciences) using FACSDiva software. FACS analysis was performed using FlowJo software. Single, viable cells in the CCR6+CD123+ pDC gates were analyzed. The flow cytometric results are expressed as the percentage and MFI of ICOSL-, or PD-L1-expressing cells in each gate.
pDCs were isolated and ICOS-L expression was analyzed as described in Example 2.
A general note: In flow cytometry, cells or beads pass a laser one at a time.

Series [5] deals with human pDCs. Briefly: Intracellular IL-10, TGF-β1 and IDO expression in CCR6+CD123+ human pDCs by FACS. Conditions: 24 hrs, FIG. 2A. In kind it is cell-based. An excerpt:
To evaluate intracellular IL-10, TGFβ 1 and IDO expression in human pDCs, the cells were first stained with PECY-7-labeled anti-human CCR6 mAb (BD Biosciences), PerCP-Cy5.5 labeled anti-human CD123 mAb (BD Biosciences). Stained cells were then fixed and permeabilized using a Cytofix/Cytoperm kit (BD Biosciences) according to the manufacturer's instructions and stained with PE-labeled anti-human IDO (Biolegend), APC-labeled anti-human IL-10 mAb and FITC-labeled anti-human TGF-β1 (BD Biosciences), or isotype-matched control mAbs. The stained cells were acquired by FACSCanto using the FACSDiva software. FACS analysis was performed using FlowJo software. Single, viable cells in the CCR6+CD123+ pDC gates were analyzed. The flow cytometric results are expressed as the percentage and MFI of IL-10-, TGF-β1- or IDO-expressing cells in each gate. Results are expressed as the mean±SEM of cells quantified.
IL10 was alternatively measured in cellular supernatants by ELISA using standard protocols.

In series [6] the test system is human PBMCs. Briefly: IL-1β secretion from human PBMCs by ELISA (inflammasome activation). In kind it is cell-based. Conditions: 24 hours, FIG. 15.

T1 sequence (Q9HC29 whole entry, species assumed): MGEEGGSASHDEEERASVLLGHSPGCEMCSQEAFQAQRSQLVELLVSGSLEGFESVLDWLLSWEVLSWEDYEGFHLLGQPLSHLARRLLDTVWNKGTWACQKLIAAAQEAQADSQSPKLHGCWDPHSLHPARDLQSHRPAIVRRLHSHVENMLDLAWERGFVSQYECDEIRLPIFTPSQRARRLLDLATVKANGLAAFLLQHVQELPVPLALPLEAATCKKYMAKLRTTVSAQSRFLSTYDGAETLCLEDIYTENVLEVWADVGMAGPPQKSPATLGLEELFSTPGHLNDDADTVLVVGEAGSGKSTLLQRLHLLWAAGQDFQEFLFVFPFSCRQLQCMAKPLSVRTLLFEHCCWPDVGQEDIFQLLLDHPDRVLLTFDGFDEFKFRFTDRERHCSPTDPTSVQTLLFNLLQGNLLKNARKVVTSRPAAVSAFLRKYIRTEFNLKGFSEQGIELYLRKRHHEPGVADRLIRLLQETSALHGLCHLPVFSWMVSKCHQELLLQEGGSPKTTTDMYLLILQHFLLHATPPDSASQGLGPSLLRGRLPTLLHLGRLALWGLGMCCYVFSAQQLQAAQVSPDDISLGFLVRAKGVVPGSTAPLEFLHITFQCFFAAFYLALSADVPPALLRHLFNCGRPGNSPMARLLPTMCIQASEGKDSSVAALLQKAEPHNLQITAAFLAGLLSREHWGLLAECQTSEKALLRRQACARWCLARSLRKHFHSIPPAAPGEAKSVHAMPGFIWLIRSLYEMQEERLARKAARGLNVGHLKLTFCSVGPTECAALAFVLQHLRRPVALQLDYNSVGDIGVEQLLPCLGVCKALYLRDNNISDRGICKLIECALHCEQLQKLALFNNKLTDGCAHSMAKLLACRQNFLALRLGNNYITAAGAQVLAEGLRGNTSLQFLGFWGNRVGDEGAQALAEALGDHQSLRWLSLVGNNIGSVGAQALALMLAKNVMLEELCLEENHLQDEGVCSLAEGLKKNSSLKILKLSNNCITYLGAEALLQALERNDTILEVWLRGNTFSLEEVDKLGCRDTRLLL

Take `CCCCCCCCCCCCCCCCCC(=O)OCC1OC(O)C(NC(C)=O)C(OC(C)C(=O)NC(C)C(=O)NC(CCC(=O)O)C(N)=O)C1O` [L-18 MDP]: in the series on human PBMCs [1], the “stimulation of IL-1β secretion from human PBMCs” value is recorded as “about 51 fold”. The “more efficient NF-κB activator than MDP” value at NOD2 was 10 fold.
In the case of “ODN2137: 5′-TGCTGCTTTTGTGCTTTTGTGCTT-3′, fully PS, GC-containing (DNA dT*dG*dC*dT*dG*dC*dT*dT*dT*dT*dG*dT*dG*dC*dT*dT*dT*dT*dG*dT*dG*dC*dT*dT)”, the “B-cell activation (CD86 upregulation)” value in series [2] was “Stronger”.
For the compound “ODN301C: 5′-GTAGCCCCATCACCCAGCAGC-3′, fully PS, GC-containing (DNA dG*dT*dA*dG*dC*dC*dC*dC*dA*dT*dC*dA*dC*dC*dC*dA*dG*dC*dA*dG*dC)”, in the series on human PBMCs [3] (any tested concentration between 0.01 μM and 10 μM, FIG. 25), the “IFNα secretion from PBMCs” value is “not found to induce”. In the series on human PBMCs [3] (high-dose ODN 10 μM), this compound registered an IFN-γ of 0 pg/mL, an IL-1β of 1.9 pg/mL, an IL-6 of 3.3 fold change and an IL-10 of 1 fold change. In the series with human PBMCs [3] (high-dose ODN 10 μM), this compound yielded an IL-12p40 of 0.8 pg/mL, an IP10 of 0.25 fold change and a TNF-α of 2.8 fold change. In the series with human PBMCs [3] (low-dose ODN 0.1 μM), this compound came in with an IFN-γ of 0 pg/mL, an IL-1β of 0.1 pg/mL, an IL-6 of 1.3 fold change and an IL-10 of 1 fold change. In addition, in the series on human PBMCs [3] (low-dose ODN 0.1 μM), the IL-12p40 was found to be 0 pg/mL, the IP10 came to 1.1 fold change and the TNF-α came out at 1.1 fold change. The PD-L1 protein induction result in the series with human pDCs [4] is “can induce”. The TGF-β1 protein induction entry in the series with human pDCs [5] is listed as “can induce”. The IL-1β induction entry in the series on human PBMCs [6] is recorded as “induce”.
